Tested on: 616215-338-R-J1-PDC complex spheroid growth, % test/control
Assay: Anticancer human tumor 616215-338-R-J1-PDC patient-derived colon adenocarcinoma cell line growth inhibition [Asc]
Details: for IC50: curve of first compound; for viability, T/C: stronger effect = lower value; active = viability on the fitted dose curve at most 10% of control; inactive = the rest
In short: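 Concentration series start at each agent's clinical Cmax, or at 10 microM when none is established, and drop in half-log steps; agents are applied alone or together to complex spheroids built with HUVEC and hMSC.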

[1] = second compound 0.00316 µM, first compound 0.0316 µM
[2] = second compound 0.00316 µM, first compound 0.1 µM
[3] = second compound 0.00316 µM, first compound 0.316 µM
[4] = second compound 0.00316 µM, first compound 1 µM
[5] = second compound 0.00316 µM, first compound 3.16 µM
[6] = second compound 0.00316 µM, first compound 10 µM
[7] = second compound 0.01 µM, first compound 0.0316 µM
[8] = second compound 0.01 µM, first compound 0.1 µM
[9] = second compound 0.01 µM, first compound 0.316 µM
[10] = second compound 0.01 µM, first compound 1 µM
[11] = second compound 0.01 µM, first compound 3.16 µM
[12] = second compound 0.01 µM, first compound 10 µM
[13] = second compound 0.0316 µM, first compound 0.0316 µM
[14] = second compound 0.0316 µM, first compound 0.1 µM
[15] = second compound 0.0316 µM, first compound 0.316 µM
[16] = second compound 0.0316 µM, first compound 1 µM
[17] = second compound 0.0316 µM, first compound 3.16 µM
[18] = second compound 0.0316 µM, first compound 10 µM
[19] = second compound 0.1 µM, first compound 0.0316 µM
[20] = second compound 0.1 µM, first compound 0.1 µM
[21] = second compound 0.1 µM, first compound 0.316 µM
[22] = second compound 0.1 µM, first compound 1 µM
[23] = second compound 0.1 µM, first compound 3.16 µM
[24] = second compound 0.1 µM, first compound 10 µM
[25] = second compound 0.316 µM, first compound 0.0316 µM
[26] = second compound 0.316 µM, first compound 0.1 µM
[27] = second compound 0.316 µM, first compound 0.316 µM
[28] = second compound 0.316 µM, first compound 1 µM
[29] = second compound 0.316 µM, first compound 3.16 µM
[30] = second compound 0.316 µM, first compound 10 µM
[31] = second compound 1 µM, first compound 0.0316 µM
[32] = second compound 1 µM, first compound 0.1 µM
[33] = second compound 1 µM, first compound 0.316 µM
[34] = second compound 1 µM, first compound 1 µM
[35] = second compound 1 µM, first compound 3.16 µM
[36] = second compound 1 µM, first compound 10 µM
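Note: spheroids exposed to agents for seven days before readout.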
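Throughout, for viability, T/C: 100% = DMSO vehicle control viability.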

O=C(c1cc(Cc2n[nH]c(=O)c3ccccc23)ccc1F)N1CCN(C(=O)C2CC2)CC1 + CNC(C)C(=O)NC1CN(S(=O)(=O)c2cccc(S(=O)(=O)N3CCC4CCC(C(=O)NC(c5ccccc5)c5ccccc5)N4C(=O)C(NC(=O)C(C)NC)C3)c2)CCC2CCC(C(=O)NC(c3ccccc3)c3ccccc3)N2C1=O
> 10 µM: IC50 (second compound 0.01 µM) | IC50 (second compound 0.0316 µM) | IC50 (second compound 0.1 µM) | IC50 (second compound 0.316 µM) | IC50 (second compound 1 µM)
active: viability, T/C [1] 8.47% | viability, T/C [2] 8.86% | viability, T/C [3] 12.9% | viability, T/C [4] 10.3% | viability, T/C [5] 8.76% | viability, T/C [6] 7.09%
< 0.0316 µM: IC50 (second compound 0.00316 µM)
inactive: viability, T/C [7] 93.3% | viability, T/C [8] 88.3% | viability, T/C [9] 97.2% | viability, T/C [10] 95.6% | viability, T/C [11] 80.8% | viability, T/C [12] 76.9% | viability, T/C [13] 103% | viability, T/C [14] 91% | viability, T/C [15] 102% | viability, T/C [16] 103% | viability, T/C [17] 94.9% | viability, T/C [18] 78.1% | viability, T/C [19] 100% | viability, T/C [20] 101% | viability, T/C [21] 94.2% | viability, T/C [22] 95.5% | viability, T/C [23] 95.2% | viability, T/C [24] 78% | viability, T/C [25] 104% | viability, T/C [26] 98% | viability, T/C [27] 105% | viability, T/C [28] 106% | viability, T/C [29] 100% | viability, T/C [30] 69.9% | viability, T/C [31] 102% | viability, T/C [32] 102% | viability, T/C [33] 96.2% | viability, T/C [34] 97.1% | viability, T/C [35] 94.1% | viability, T/C [36] 80.9%

C=C(F)C(=O)N1CCN(c2nc(OCC3CCCN3C)nc3c2CCN(c2cccc4cccc(Cl)c24)C3)CC1CC#N (centres undefined) + CNC(C)C(=O)NC1CN(S(=O)(=O)c2cccc(S(=O)(=O)N3CCC4CCC(C(=O)NC(c5ccccc5)c5ccccc5)N4C(=O)C(NC(=O)C(C)NC)C3)c2)CCC2CCC(C(=O)NC(c3ccccc3)c3ccccc3)N2C1=O
0.155 µM: IC50 (second compound 0.0316 µM)
0.131 µM: IC50 (second compound 1 µM)
0.175 µM: IC50 (second compound 0.00316 µM)
0.162 µM: IC50 (second compound 0.01 µM)
0.0526 µM: IC50 (second compound 0.1 µM)
active: viability, T/C [5] 1.09% | viability, T/C [6] 0.18% | viability, T/C [11] 0.82% | viability, T/C [12] 2.38% | viability, T/C [17] 0.88% | viability, T/C [18] 0.16% | viability, T/C [23] 0.85% | viability, T/C [24] 1.36% | viability, T/C [29] 1.16% | viability, T/C [30] 0.18% | viability, T/C [35] 1.42% | viability, T/C [36] 0.21%
0.243 µM: IC50 (second compound 0.316 µM)
inactive: viability, T/C [1] 61% | viability, T/C [2] 53.5% | viability, T/C [3] 43.7% | viability, T/C [4] 23.7% | viability, T/C [7] 64.8% | viability, T/C [8] 53.1% | viability, T/C [9] 41.4% | viability, T/C [10] 26.3% | viability, T/C [13] 65.3% | viability, T/C [14] 43.8% | viability, T/C [15] 47.5% | viability, T/C [16] 21.2% | viability, T/C [19] 54.9% | viability, T/C [20] 43.8% | viability, T/C [21] 39.4% | viability, T/C [22] 23.5% | viability, T/C [25] 56.5% | viability, T/C [26] 58.4% | viability, T/C [27] 47.7% | viability, T/C [28] 13.9% | viability, T/C [31] 60% | viability, T/C [32] 52% | viability, T/C [33] 38.8% | viability, T/C [34] 15.7%

From PubChem BioAssay AID1963448 (Molecular Pharmacology Branch, DTP, NCI, 2024)
